Measurements reported in the NIST ThermoML archive (doi:10.1021/je500792x).

Assay: xn = mol fraction of the nth substance listed
Conditions: Gas, Buoyancy - hydrostatic balance with magnetic suspension - two sinkers

C [methane] + CCC
Conditions	mass density [kg/m3]
293.15 K, 1153.9 kPa, x1 = 0.2658	20.3554
293.15 K, 1175 kPa, x1 = 0.2658	20.8043
293.15 K, 1187.5 kPa, x1 = 0.2658	21.0718
293.15 K, 1209.4 kPa, x1 = 0.5069	16.361
293.15 K, 1399.6 kPa, x1 = 0.5069	19.2777
293.15 K, 1605.8 kPa, x1 = 0.5069	22.5759
298.14 K, 160.58 kPa, x1 = 0.2658	2.414
298.15 K, 311.48 kPa, x1 = 0.2658	4.7646
298.15 K, 471.27 kPa, x1 = 0.2658	7.3487
298.15 K, 493.82 kPa, x1 = 0.7498	4.6835
298.15 K, 500.2 kPa, x1 = 0.7498	4.742
298.15 K, 605.41 kPa, x1 = 0.2658	9.6013
298.15 K, 758.38 kPa, x1 = 0.2658	12.2732
298.15 K, 785.06 kPa, x1 = 0.7498	7.5358
298.15 K, 909.2 kPa, x1 = 0.2658	15.0282
298.15 K, 999.01 kPa, x1 = 0.7498	9.679
298.15 K, 1000.6 kPa, x1 = 0.7498	9.6924
298.15 K, 1055.1 kPa, x1 = 0.2658	17.8236
298.15 K, 1094 kPa, x1 = 0.7498	10.6384
298.15 K, 1201.2 kPa, x1 = 0.2658	20.7664
298.15 K, 1355.7 kPa, x1 = 0.2658	24.0659
298.15 K, 1372.4 kPa, x1 = 0.7498	13.507
298.15 K, 1686.6 kPa, x1 = 0.7498	16.8301
298.15 K, 1999.5 kPa, x1 = 0.7498	20.2389
298.15 K, 2001.4 kPa, x1 = 0.7498	20.2558
298.15 K, 2075.4 kPa, x1 = 0.7498	21.0754
298.15 K, 3006.3 kPa, x1 = 0.7498	31.9148
298.15 K, 3043.9 kPa, x1 = 0.7498	32.3714
298.15 K, 3990.5 kPa, x1 = 0.7498	44.5527
298.15 K, 4003.1 kPa, x1 = 0.7498	44.7224
298.15 K, 4119.5 kPa, x1 = 0.7498	46.3151
298.15 K, 4424.2 kPa, x1 = 0.7498	50.5647
298.15 K, 4993.9 kPa, x1 = 0.7498	58.9113
298.15 K, 5997.5 kPa, x1 = 0.7498	74.9816
298.15 K, 5999.6 kPa, x1 = 0.7498	75.0173
323.16 K, 434.83 kPa, x1 = 0.5069	4.9489
323.16 K, 609.43 kPa, x1 = 0.5069	7.005
323.16 K, 747.99 kPa, x1 = 0.7498	6.5657
323.16 K, 981.92 kPa, x1 = 0.7498	8.6824
323.16 K, 1028.4 kPa, x1 = 0.5069	12.1152
323.16 K, 1206.2 kPa, x1 = 0.5069	14.365
323.16 K, 1225.9 kPa, x1 = 0.7498	10.9233
323.16 K, 1407.1 kPa, x1 = 0.5069	16.9693
323.16 K, 1492.3 kPa, x1 = 0.7498	13.4094
323.16 K, 1603.4 kPa, x1 = 0.5069	19.5802
323.16 K, 1721 kPa, x1 = 0.7498	15.578
323.16 K, 1804.7 kPa, x1 = 0.5069	22.3318
323.16 K, 1913.8 kPa, x1 = 0.5069	23.855
323.16 K, 1988.8 kPa, x1 = 0.7498	18.1586
323.16 K, 3017.7 kPa, x1 = 0.7498	28.51
323.16 K, 4475.4 kPa, x1 = 0.7498	44.4692
323.16 K, 5928.8 kPa, x1 = 0.7498	62.0416
323.17 K, 161.42 kPa, x1 = 0.2658	2.2297
323.17 K, 240.14 kPa, x1 = 0.5069	2.7038
323.17 K, 277.8 kPa, x1 = 0.2658	3.8766
323.17 K, 380.81 kPa, x1 = 0.2658	5.3632
323.17 K, 474.08 kPa, x1 = 0.2658	6.7339
323.17 K, 556.87 kPa, x1 = 0.2658	7.9706
323.17 K, 653.58 kPa, x1 = 0.2658	9.4407
323.17 K, 814.12 kPa, x1 = 0.5069	9.4697
323.17 K, 861.14 kPa, x1 = 0.2658	12.694
323.17 K, 956.3 kPa, x1 = 0.2658	14.2336
323.17 K, 1057.6 kPa, x1 = 0.2658	15.9088
323.17 K, 1155.4 kPa, x1 = 0.2658	17.5614
373.14 K, 736.34 kPa, x1 = 0.5069	7.2655
373.14 K, 1298.1 kPa, x1 = 0.5069	13.0615
373.14 K, 1387.2 kPa, x1 = 0.5069	14.0021
373.14 K, 1906.7 kPa, x1 = 0.5069	19.6043
373.15 K, 286.24 kPa, x1 = 0.5069	2.7813
373.15 K, 293.98 kPa, x1 = 0.7498	2.1956
373.15 K, 494.25 kPa, x1 = 0.7498	3.7047
373.15 K, 559.53 kPa, x1 = 0.5069	5.4874
373.15 K, 587.98 kPa, x1 = 0.5069	5.7723
373.15 K, 732.21 kPa, x1 = 0.7498	5.5128
373.15 K, 776.15 kPa, x1 = 0.5069	7.6695
373.15 K, 942.67 kPa, x1 = 0.5069	9.3682
373.15 K, 969.14 kPa, x1 = 0.5069	9.6405
373.15 K, 973.87 kPa, x1 = 0.7498	7.3646
373.15 K, 1118.7 kPa, x1 = 0.5069	11.1859
373.15 K, 1177.4 kPa, x1 = 0.5069	11.7969
373.15 K, 1222.4 kPa, x1 = 0.7498	9.2859
373.15 K, 1491.1 kPa, x1 = 0.7498	11.3819
373.15 K, 1497 kPa, x1 = 0.5069	15.1688
373.15 K, 1581.5 kPa, x1 = 0.5069	16.0735
373.15 K, 1707.3 kPa, x1 = 0.5069	17.4293
373.15 K, 1745.3 kPa, x1 = 0.5069	17.8434
373.15 K, 1990.9 kPa, x1 = 0.7498	15.3338
373.15 K, 1998.3 kPa, x1 = 0.7498	15.3921
373.15 K, 1999.3 kPa, x1 = 0.5069	20.6289
373.15 K, 3998.4 kPa, x1 = 0.7498	31.915
373.15 K, 4503 kPa, x1 = 0.7498	36.2589
373.15 K, 5859.6 kPa, x1 = 0.7498	48.2829
373.16 K, 150.36 kPa, x1 = 0.2658	1.7881
373.16 K, 249.5 kPa, x1 = 0.2658	2.984
373.16 K, 442.47 kPa, x1 = 0.2658	5.3479
373.16 K, 487.18 kPa, x1 = 0.7498	3.6521
373.16 K, 564.91 kPa, x1 = 0.2658	6.8735
373.16 K, 592.63 kPa, x1 = 0.2658	7.2228
373.16 K, 676.04 kPa, x1 = 0.2658	8.2772
373.16 K, 733.18 kPa, x1 = 0.2658	9.007
373.16 K, 866.5 kPa, x1 = 0.2658	10.7249
373.16 K, 883.43 kPa, x1 = 0.2658	10.9464
373.16 K, 963.18 kPa, x1 = 0.2658	11.9881
373.16 K, 991.05 kPa, x1 = 0.7498	7.4967
373.16 K, 1034.3 kPa, x1 = 0.2658	12.9279
373.16 K, 1057.2 kPa, x1 = 0.2658	13.2303
373.16 K, 1156.4 kPa, x1 = 0.2658	14.557
373.16 K, 1174.7 kPa, x1 = 0.2658	14.8058
373.16 K, 1293.1 kPa, x1 = 0.2658	16.4139
373.16 K, 1468.2 kPa, x1 = 0.7498	11.1998
373.16 K, 1985.8 kPa, x1 = 0.7498	15.2929
373.16 K, 2987.4 kPa, x1 = 0.7498	23.4236
373.16 K, 2996.6 kPa, x1 = 0.7498	23.4974
373.16 K, 3945 kPa, x1 = 0.7498	31.4611
373.16 K, 4881.1 kPa, x1 = 0.7498	39.5669
373.16 K, 6041.3 kPa, x1 = 0.7498	49.9291
373.17 K, 281.96 kPa, x1 = 0.2658	3.3776
373.17 K, 361.95 kPa, x1 = 0.2658	4.3551
373.17 K, 469.53 kPa, x1 = 0.2658	5.683
